Where two headings read alike, the source gives them in different places.
Key:
AC3-TGL cells = assay: human primary SCLC xenograft model, Example 15; type: in vivo
From the text: This Example studied whether the ME analog affects tumor metastasis in a human small cell lung cancer (SCLC) primary xenograft model. These cells in primary and subsequent in vivo passages in NOD-SCID mice formed liver metastases. The tumor cells were stably transduced with a triple-fusion protein reporter construct (AC3-TGL), and were transplanted by subcutaneous injection with matrigel into NOD/SCID IL2R gamma null (NSG) mice. Started 1 day prior the inoculation of tumor cells, ME treatment was initiated by intraperitoneal injection at 40 mg/kg (ME40) or 200 mg/kg (ME200) three times a week in groups of 5 mice. Control mice were treated with DMSO vehicle. Tumor burden and metastatic spread were monitored every 5 days by serial non-invasive bioluminescent imaging. […] At the endpoint, the potential metastatic sites (liver, lung, spleen, heart and kidney, gastrointestinal tract) were surgically resected and the luciferase activity quantified by ex-vivo bioluminescence imaging (FIG. 5b).
For the results depicted in FIGS. 5a-c, AC3-TGL cells were transplanted by subcutaneous ventral injection into NSG mice. Xenografted mice were treated with indicated dosages of ME every 3 days started from day −1 after tumor inoculation: 40 mg/kg (ME40, n=5), 200 mg/kg (ME200, n=5)) and DMSO vehicle (Control, n=5). At day 45, the mice were sacrificed. Three mice in the ME200 group died before the end of treatment, at day 23, 30 and 34. (A) Tumor growth. Every 5 days, the tumor burden was monitored by in vivo Bioluminescence Imaging (BI) and data is expressed as photon flux (flux in photon/sec)+/−SEM in log scale. (B, C) Tumor metastasis at endpoint. At day 45, mice were analyzed for metastasis by ex vivo BI quantifying luciferase activity in the excised lungs (Lu), liver (Li), heart (H), kidneys (K) and the spleen (S). Measurements for each mouse are presented on the panel B (circles), with the average per group (short line) and expressed as photon flux (flux in photon/sec) in log scale. P-values were obtained using two-tailed Mann-Whitney U-test. Pictures of bioluminescence signal measured on the organs from 1 mouse of each group are presented on the panel C. Each picture is presented with the same settings (4 min exposure; photon signal; color scale from 5.E6 (min) to 1.E8 (max)).
Xenograft Model for Example 15: A human primary SCLC xenograft model was developed in 10-14 weeks old male non-obese diabetic severe combined immunodeficient (NOD/SCID) Interleukin-2 gamma Chain Receptor Null Mice (NSG). Primary tumor samples were obtained after patient informed consent. AC3-TGL primary cells growing as clumps were processed into a single-cell suspension by Trypsin/Collagenase IV (Invitrogen) sequential treatment and filtrated as described above. Xenografts were performed by subcutaneous ventral injection of 10^3 AC3-TGL cells in serum-free medium mixed with Matrigel (Becton Dickinson). One day prior to the tumor cell injection, mice were pretreated with Migrastatin Ether (ME) compounds at a dose of either 40 mg/kg or 200 mg/kg per mouse or with DMSO vehicle control (n≧5 mice per group). […] During this time, the tumor burden and metastatic spread were monitored by bioluminescence imaging (BLI) every 5 days. At day 45 (endpoint), the mice were killed and the metastatic spread of tumor cells to the lungs, liver, heart, kidneys, spleen and GI tract was assessed by ex-vivo BLI on the removed organs.

water solubility = type: physicochemical; conditions: water with 5% methanol, aqueous with cosolvent or surfactant or cyclodextrin; in the presence of 5% methanol
[1] = mouse pharmacokinetics, plasma HPLC-MS/MS; type: in vivo, mice (B6D2F1); conditions: for AUC(0-t): 20 mg/kg in 2% GDM-12, read-out: AUC0-24 hr; for half-life: 20 mg/kg in 2% GDM-12, read-out: Half-life (t1/2) (converted)
Experimental: Groups of mix gender mice (B6D2F1) were used. Pharmacokinetics (PK) were performed on heparinized mouse plasma samples obtained typically at 0 hr, 0.17 hr, 0.5 hr, 0.75 hr, 1 hr, 2 hr, 4 hr, 8 hr, 16 hr and 24 hr after the bolus intravenous or intraperitoneal injections for CME. Samples were analyzed using a HPLC-MS/MS method. To determine the level of CME, the drug was first isolated from plasma with a sample pre-treatment. Acetonitrile were used to remove proteins in samples. An isocratic HPLC-MS/MS method was then used to separate the drugs from any potential interference. Compound levels were measured by MS detection with a multiple reaction monitoring (MRM) mode. PK data was analyzed using the WinNonlin program (ver. 5.3, Pharsight) compartmental model of analysis.
The hashed line is (A: ip) and the solid line is (B:iv) The drug was administered intravenously or intraperitoneally and the dosing strength was 20 mg/kg.

MDA231BrM2a cells = assay: ex-vivo intra-brain migration assay on brain slices; type: cell-based, human; conditions: 1 μM or 10 μM; 3 days
From the text: After extravasation through the BBB, cancer cells adhere to and migrate on the surface of brain capillaries. Prior to the present disclosure, the permeability of the BBB to cME was unknown. To investigate the ability of cME to inhibit cancer cell migration over capillaries once the cells have infiltrated the brain, we used an ex-vivo intra-brain migration assay. Brain slices from untreated mice were placed in organotypic cultures. Each slice was placed on an inertporous membrane over cell culture medium. MDA231BrM2a cells (3×10^4 cells) were plated on top of the brain slices (FIG. 2, top). After 3 days, the cancer cells had infiltrated the brain tissue mass, migrated towards capillaries (Col. IV in FIG. 2) and migrated on the capillary network of the tissue slice (FIG. 2, bottom). […] In the presence of cME, the cancer cells remained round and on the surface of the brain slice, without migrating towards and over the vascular network (FIG. 2, bottom right).

[2] = system: MDA231-LM2 lung metastatic breast cancer cells; assay: trans-well cell migration assay, 3 μm pore Boyden chamber; type: cell-based; conditions: 24 h pre-treatment, 5 h migration
Experimental: MDA231-LM2 lung metastatic breast cancer cells were pre-treated with the indicated concentrations of ME or Carboxymethyl-ME for 24 hours. Following the pre-treatment, migration was determined using a Boyden chamber with 3 μm pore size filters. Cells were allowed to migrate for 5 hours through the chamber (in the presence of ME or Carboxymethyl-ME). Cells that traversed the porous membranes were analyzed and scored under a fluorescence microscope. […] The results are expressed as transmigrated cells per optical field. Data are averages of triplicates ±S.D. (See FIG. 6)

[3] = both sexes, B6D2F1, plasma, ip, 20 mg/kg in 2% GDM-12
[4] = both sexes, B6D2F1, plasma, iv, 20 mg/kg in 2% GDM-12

SMILES	decrease of overall metastasis (AC3-TGL cells; 40 mg/kg i.p. every 3 days, day 45, vs control)	mice died before the endpoint (AC3-TGL cells; 200 mg/kg group of 5)	metastasis inhibition (AC3-TGL cells; 200 mg/kg i.p. every 3 days, day 45, 2 surviving mice)	side effects in surviving mice (AC3-TGL cells; 200 mg/kg, 2 surviving mice, after 45 days of treatment)	tumor growth kinetics at the primary site of injection (AC3-TGL cells; 40 or 200 mg/kg i.p.)	solubility (water solubility)	AUC(0-inf) [1, 3]	Cmax [1, 3]	bioavailability [1, 3]	AUC(0-t) ([1]; both sexes, B6D2F1, plasma, ip)	half-life ([1]; both sexes, B6D2F1, plasma, ip)	AUC(0-inf) [1, 4]	Cmax [1, 4]	clearance [1, 4]	AUC(0-t) ([1]; both sexes, B6D2F1, plasma, iv)	half-life ([1]; both sexes, B6D2F1, plasma, iv)	CL ([1]; ip, 20 mg/kg in 2% GDM-12)	migration of cancer cells towards and over the capillary network of the brain slice (MDA231BrM2a cells)	potency relative to ME at inhibiting migration [2]
CO[C@H]1/C=C/CCCCCOC/C(C)=C\[C@@H](C)[C@@H]1O [ME, migrastatin ether]	93%	3 mice	99%	no body-weight loss, lethargy or other obvious side effects	did not significantly interfere														
CO[C@H]1/C=C/CCCCCOC/C(C)=C\[C@@H](C)[C@@H]1OCC(=O)O [CME, Carboxymethyl migraether]						200 to 300 µg/mL	27900 ng·h/mL	369 ng/mL	77.8%	27800 ng·h/mL	144 min	36000 ng·h/mL	1540 ng/mL	9.25 mL/min/kg	35700 ng·h/mL	174 min	717.8 mL/h/kg	strongly inhibited	approximately 20 fold

Reference: patent US9303009B2, “Migrastatins and uses thereof” (Sloan-Kettering Institute for Cancer Research, priority 2011, dated 2016)
